Several values for one entry are separate records, joined by “and”; a condition that tells them apart may be missing. Identical values can stand only once.
Legend:
GPR139 [1] = biological target: T1, GPR139 (Homo sapiens, UniProt Q6DWJ6); experiment: Ca2+ mobilization assay, agonist mode, stable GPR139-CHOk1 cell line; type: cell-based
T1 sequence (Q6DWJ6 1-353): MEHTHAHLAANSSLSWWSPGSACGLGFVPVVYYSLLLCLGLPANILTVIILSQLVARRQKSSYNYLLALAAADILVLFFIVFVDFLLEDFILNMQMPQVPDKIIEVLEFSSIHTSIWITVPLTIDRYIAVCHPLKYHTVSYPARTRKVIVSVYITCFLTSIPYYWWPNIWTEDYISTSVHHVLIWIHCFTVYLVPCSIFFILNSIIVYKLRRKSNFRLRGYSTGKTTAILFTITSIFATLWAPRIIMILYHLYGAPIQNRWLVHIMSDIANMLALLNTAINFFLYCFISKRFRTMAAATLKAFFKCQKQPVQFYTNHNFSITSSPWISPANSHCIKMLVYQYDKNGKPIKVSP
Method: Primary screening and pharmacological characterization of compounds were performed using a CHO-K1 cell line that stably expresses human GPR139 (GPR139-CHOk1). The GPR139-CHOk1 cell line was kindly provided by H. Lundbeck A/S, Denmark[24]. GPR139-CHOk1 cells were grown in Ham’s F-12 Kaighn’s Modification Medium (ThermoFisher #21127030) supplemented with 10% dialyzed fetal bovine serum (US origin, ThermoFisher #26400044), 100 units/mL Penicillin-Streptomycin (ThermoFisher #15140122), and 1 mg/mL Geneticin (ThermoFisher #11811031). […] M1R-CHOk1 cells were purchased from The Missouri S&T cDNA Resource Center (#CEM100TN00). M1R-CHOk1 cells were grown in Ham’s F12 Medium (ThermoFisher #21765029) supplemented with 10% fetal bovine serum (Brazilian origin, ThermoFisher #10270106), 100 units/mL Penicillin-Streptomycin, and 0.25 mg/mL Geneticin. HEK293A cells transiently transfected with GPR139 were used for additional pharmacological assessment of signaling pathways activated by GPR139. HEK239A cells were generously provided by Dr. Asuka Inoue, Tohoku University, Japan. HEK293A cells were grown in Dulbecco’s Modified Eagle Medium (ThermoFisher #31966047) supplemented with 10% dialyzed fetal bovine serum and 100 units/mL Penicillin-Streptomycin. Cell lines were maintained at 37 °C in humidified incubator equilibrated with 5% CO2.
(§1) 30,000 GPR139- or M1R-CHOk1 cells/well were seeded in black clear bottom tissue culture treated 96-well plates (Greiner #655090) and grown for 20–24 h. Cells were washed with HEPES buffer (Hank’s Balanced Salt Solution (HBBS) supplemented with 20 mM HEPES, 1 mM MgCl2, and 1 mM CaCl2; pH 7.4). Cells were loaded with 50 µL of 2 µM Fluo-4 AM dye (ThermoFisher #F14202) in HEPES buffer supplemented with 2.5 mM probenecid and 0.01% Pluronic F-68 (ThermoFisher #24040032) for 1 h at 37 °C. Cells were washed with HEPES buffer. 50 µL HEPES buffer supplemented with 2.5 mM probenecid was added, and the cells were incubated for 10 min at 37 °C before measurement. 50 µL test compounds diluted in HEPES buffer from DMSO stocks (final DMSO concentration of maximally 0.3%) were added automatically after baseline measurements. The intracellular calcium mobilization was measured on a FlexStation 3 Multimode Microplate Reader (Molecular Devices) at 37 °C with filters for excitation of 485 nm and emission of 525 nm.
(§2) Our primary compound screening protocol consisted of two subsequent steps that allowed to screen for agonists and antagonists simultaneously. In the first step, the screening compounds were applied at 10 µM to test for agonist activity (agonist mode). Following 20 min incubation with the compounds added in the first step, in the second step, an EC80 concentration (800 nM) of the reference agonist Lundbeck Cmp 1a was applied to test for antagonist activity (antagonist mode).
Pharmacological data and statistical analyses were performed in GraphPad Prism v9–10 (Graphpad Software Inc., San Diego, CA), which are also specifically described in the figure and table legends. The functional assay responses were normalized to buffer (0%) and Lundbeck Cmp 1a or JNJ-63533054 (100%), for Ca^2+ and IP1 experiments in the GPR139-CHOk1 stable cell line or Ca^2+, G protein activation, and arrestin-3 recruitment experiments in the HEK293A cells transiently transfected with GPR139, respectively. Data are from at least three independent experiments, unless stated otherwise. Concentration-response curves were fitted applying non-linear regression using the log (agonist) versus response model with variable slope. ANOVA was applied for comparing results and determining statistical significance.

GPR139 [2] = biological target: T1, GPR139; experiment: Ca2+ mobilization assay, antagonist mode (EC80 800 nM Lundbeck Cmp 1a after 20 min preincubation), GPR139-CHOk1; type: cell-based; details: individual replicates (Supplementary Figure 1)
Method: as §1
as §2, with “(antagonist mode). In the agonist mode (first step) response is seen only with compounds having agonist activity (Cmp 1a), but not with non-receptor-binding compounds (Vehicle) or antagonists (NCRW0105-E06) (Supplementary Fig. 14). […] No antagonist compounds were identified in this study.” for “(antagonist mode).”

[3] = Agonist mode, individual replicates (Supplementary Figure 1)

Compound	Ca2+ signal (% of Cmp 1a) (GPR139 [1]; [3])	Ca2+ signal (% of Cmp 1a) (GPR139 [2])	Ca2+ signal (% of Cmp 1a) (GPR139 [1]; primary screen, 10 µM compound, agonist mode, three columns = independent experiments)
O=C(NCC1CC=CCC1)Nc1cnn(-c2cnc3ccccc3n2)c1 (stereo not drawn) [Compound 28, O=C(NCC1CCC=CC1)NC=2C=NN(C2)C=3C=NC=4C=CC=CC4N3]	-7.43 % of Cmp 1a and 8 % of Cmp 1a and 9 % of Cmp 1a	78.5136 % of Cmp 1a and 66.4897 % of Cmp 1a and 98.5524 % of Cmp 1a	
Cc1sc2ncn(NC(=O)c3csc4cncn34)c(=O)c2c1C [Compound 23, CC=1SC=2N=CN(NC(=O)C3=CSC4=CN=CN34)C(=O)C2C1C]	-1 % of Cmp 1a and 11 % of Cmp 1a and -1.45 % of Cmp 1a	92.3647 % of Cmp 1a and 68.6585 % of Cmp 1a and 94.6907 % of Cmp 1a	
O=C(CCn1cnc2cc(Cl)ccc2c1=O)Nc1ccccc1F [Compound 46, FC=1C=CC=CC1NC(=O)CCN2C=NC=3C=C(Cl)C=CC3C2=O]	2.73 % of Cmp 1a and -6 % of Cmp 1a (2×)	71.2649 % of Cmp 1a and 88.164 % of Cmp 1a and 80.2917 % of Cmp 1a	
Cc1ccc(Oc2ccc(NC(=O)C(C)n3cccn3)cn2)cc1 (stereo not drawn) [Compound 59, CC(C(=O)NC=1C=CC(OC=2C=CC(C)=CC2)=NC1)N3C=CC=N3]	-2 % of Cmp 1a and -8 % of Cmp 1a and 2.12 % of Cmp 1a	78.8114 % of Cmp 1a and 81.7621 % of Cmp 1a and 78.2182 % of Cmp 1a	
Cc1ccc(C(=O)Nc2cccc(-c3nnc[nH]3)c2)c2c1CCC2 [Compound 61, CC=1C=CC(C(=O)NC=2C=CC=C(C2)C3=NN=CN3)=C4CCCC41]	-6 % of Cmp 1a and -0.901 % of Cmp 1a and -0.172 % of Cmp 1a	50.3835 % of Cmp 1a and 83.4509 % of Cmp 1a and 72.5179 % of Cmp 1a	
O=C(CCn1cncn1)Nc1ccc(Oc2ccc(Cl)cc2)nc1 [Compound 66, ClC=1C=CC(OC=2C=CC(NC(=O)CCN3C=NC=N3)=CN2)=CC1]	6.43 % of Cmp 1a and -3.62 % of Cmp 1a and -6 % of Cmp 1a	74.4571 % of Cmp 1a and 74.7932 % of Cmp 1a and 88.8781 % of Cmp 1a	
Cn1c(SCC(=O)Nc2c(F)cccc2F)nc2ccccc21 [Compound 30, CN1C(SCC(=O)NC=2C(F)=CC=CC2F)=NC=3C=CC=CC13]	-6.62 % of Cmp 1a and 1.6 % of Cmp 1a and 14 % of Cmp 1a	67.1888 % of Cmp 1a and 62.1843 % of Cmp 1a and 60.1781 % of Cmp 1a	
CC(C)(NC(=O)Nc1ccccc1)C(=O)Nc1cnc2ccccc2c1 [Compound 20, CC(C)(NC(=O)NC=1C=CC=CC1)C(=O)NC=2C=NC=3C=CC=CC3C2]	2.84 % of Cmp 1a and -2.82 % of Cmp 1a and 13 % of Cmp 1a	73.2682 % of Cmp 1a and 77.4411 % of Cmp 1a and 81.0233 % of Cmp 1a	
CCn1c(Nc2ccn(C)n2)nnc1-c1n[nH]c(=O)c2ccccc12 [Compound 45, CCN1C(NC=2C=CN(C)N2)=NN=C1C3=NNC(=O)C=4C=CC=CC34]	0.117 % of Cmp 1a and 7 % of Cmp 1a and 8 % of Cmp 1a	78.1245 % of Cmp 1a and 83.0928 % of Cmp 1a and 73.9872 % of Cmp 1a	
C[C@@H](NC(=O)CSc1nnc2n1CCCCC2)c1ccccc1 [Compound 53, C[C@@H](NC(=O)CSC1=NN=C2CCCCCN12)C=3C=CC=CC3]	10 % of Cmp 1a and 6 % of Cmp 1a and 3.73 % of Cmp 1a	70.6126 % of Cmp 1a and 69.0784 % of Cmp 1a and 84.522 % of Cmp 1a	
Cc1ccc(NC(=O)C2Cc3ccccc32)cc1C(=O)N(C)C(C)C (stereo not drawn) [Compound 41, CC(C)N(C)C(=O)C=1C=C(NC(=O)C2CC=3C=CC=CC23)C=CC1C]	0.898 % of Cmp 1a and -4.45 % of Cmp 1a and -1.11 % of Cmp 1a	75.8841 % of Cmp 1a and 100.088 % of Cmp 1a and 66.5963 % of Cmp 1a	
COCC1(CNC(=O)NCc2ccccc2)OCCc2ccccc21 (stereo not drawn) [Compound 44, COCC1(CNC(=O)NCC=2C=CC=CC2)OCCC=3C=CC=CC31]	8 % of Cmp 1a and -1.67 % of Cmp 1a and 19 % of Cmp 1a	80.8112 % of Cmp 1a and 71.471 % of Cmp 1a and 86.0472 % of Cmp 1a	
CC(CC(=O)N(CC(=O)N1CCCC1)CC1CCCO1)n1cccc1 (stereo not drawn) [Compound 22, CC(CC(=O)N(CC1CCCO1)CC(=O)N2CCCC2)N3C=CC=C3]	10 % of Cmp 1a and -5.34 % of Cmp 1a and 0.0706 % of Cmp 1a	90.9616 % of Cmp 1a and 92.7534 % of Cmp 1a and 72.9128 % of Cmp 1a	
CN(Cc1nnc[nH]1)c1nc(-c2cc(Cl)cc(Cl)c2)no1 [Compound 25, CN(CC1=NN=CN1)C2=NC(=NO2)C=3C=C(Cl)C=C(Cl)C3]	4.25 % of Cmp 1a and 1 % of Cmp 1a and 14 % of Cmp 1a	70.9298 % of Cmp 1a and 72.5727 % of Cmp 1a and 87.7637 % of Cmp 1a	
CCc1ocnc1C(=O)Nc1cccc(C(=O)NCc2ccccc2)c1 [Compound 29, CCC=1OC=NC1C(=O)NC=2C=CC=C(C2)C(=O)NCC=3C=CC=CC3]	-4.43 % of Cmp 1a and 1.9 % of Cmp 1a and 8 % of Cmp 1a	59.2373 % of Cmp 1a and 59.0417 % of Cmp 1a and 94.2662 % of Cmp 1a	
CC1(C)COc2cc(NC(=O)NCc3cccnn3)ccc21 [Compound 52, CC1(C)COC=2C=C(NC(=O)NCC=3C=CC=NN3)C=CC21]	1.65 % of Cmp 1a and 1.26 % of Cmp 1a and 1.78 % of Cmp 1a	71.4617 % of Cmp 1a and 78.215 % of Cmp 1a and 78.5023 % of Cmp 1a	1.65 % of Cmp 1a and 1.26 % of Cmp 1a and 1.78 % of Cmp 1a
CC(=O)c1sc(NC(=O)Cc2cncs2)nc1-c1ccccc1 [Compound 36, CC(=O)C=1SC(NC(=O)CC2=CN=CS2)=NC1C=3C=CC=CC3]	9 % of Cmp 1a and -3 % of Cmp 1a and 2.21 % of Cmp 1a	88.0715 % of Cmp 1a and 92.8057 % of Cmp 1a and 66.8597 % of Cmp 1a	
CC(C(=O)Nc1cccc(-c2nc3ccccc3n2C)c1)n1cccn1 (stereo not drawn) [Compound 67, CC(C(=O)NC=1C=CC=C(C1)C2=NC=3C=CC=CC3N2C)N4C=CC=N4]	3.19 % of Cmp 1a and -6 % of Cmp 1a and -7 % of Cmp 1a	87.0817 % of Cmp 1a and 99.3874 % of Cmp 1a and 88.8295 % of Cmp 1a	
O=C(NCc1ccc(Cl)s1)c1ccnc(-n2cncn2)c1 [Compound 64, ClC1=CC=C(CNC(=O)C=2C=CN=C(C2)N3C=NC=N3)S1]	-4 % of Cmp 1a and -5 % of Cmp 1a and -0.942 % of Cmp 1a	87.3464 % of Cmp 1a and 90.999 % of Cmp 1a and 82.6211 % of Cmp 1a	
